The values that follow come from US20220313693A1, “METHODS OF TREATING HIV IN PEDIATRIC PATIENTS WITH RILPIVIRINE” (priority 2019, published 2022).

The nature of data set [1]: Intensive PK assessment of RPV at steady state, Phase II open-label trial in ARV-naive HIV-1 infected adolescents and children. As to conditions: RPV 25 mg qd multiple dose.
The nature of data set [2]: clinical. As to conditions: human, in vivo, 25 mg, mean ± SD, RPV 25 mg qd multiple dose; for AUC(0-t): AUC24h.
The conditions of data set [3]: Adults, pooled ECHO/THRIVE, RPV 25 mg qd, N=44; cited from earlier work.
The conditions of data set [4]: adult and pediatric participants receiving abacavir in clinical studies; cited from earlier work.
Where [5] appears, read: Adolescents (Cohort 1, ≥12 to <18 years), N=23.
Setting [6] is: Children ≥6-<12 years (Cohort 2), all bodyweights, N=10, preliminary analysis.
[7] abbreviates: Children ≥6-<12 years (Cohort 2), ≥25 kg only, N=5, preliminary analysis.

In general, AUC(0-t) refers to exposure summed from dosing to a finite time, without extrapolation to infinity. Low readings indicate low exposure, high ones high exposure. The Cmax is the highest concentration seen after dosing.

Structures are written as SMILES. Where two headings read alike, the source gives them in different places.

`Cc1cc(/C=C/C#N)cc(C)c1Nc1ccnc(Nc2ccc(C#N)cc2)n1` [RPV, Rilpivirine]: in data set [1] (setting [5]), the “C0h (predose plasma concentration), mean ± SD” value is reported as 80.8 ± 40.4 ng/mL; the “Cmin, mean ± SD” value was determined as 57.1 ± 26.3 ng/mL; the “tmax, median [range]” value is reported as 5.00 (2.00-9.03) h. In data set [1] (setting [6]), the “C0h (predose plasma concentration), mean ± SD” value was 118 ± 61.5 ng/mL and the “Cmin, mean ± SD” value was determined as 77 ± 38.4 ng/mL. Also, in data set [1] (setting [7]), the “C0h (predose plasma concentration), mean ± SD” value is 104 ± 57 ng/mL; the “Cmin, mean ± SD” value is listed as 74 ± 29.7 ng/mL; the “tmax, median [range]” value is reported as 4.00 (1.97-9.00) h. Also, the AUC(0-t) in data set [2] (setting [5]) stood at 1870 ± 717 ng·h/mL. In data set [2] (setting [6]), this molecule had an AUC(0-t) of 3020 ± 1610 ng·h/mL and a Cmax of 182 ± 110 ng/mL. In addition, in data set [2] (setting [7]), the AUC(0-t) came out at 2450 ± 735 ng·h/mL and the peak level (Cmax) was 136 ± 46.1 ng/mL. Further, in data set [3], the “AUC24h, mean ± SD” value is 2005 ± 970 ng·h/mL; the “C0h (predose plasma concentration), mean ± SD” value is 67.6 ± 39.0 ng/mL; the “Cmax, mean ± SD” value is reported as 134 ± 72.0 ng/mL; the “Cmin, mean ± SD” value is 53.7 ± 28.3 ng/mL.
In the case of `Nc1nc(NC2CC2)c2ncn([C@H]3C=C[C@@H](CO)C3)c2n1` [abacavir], the “Participants with hypersensitivity reactions” value in data set [4] is recorded as “approximately 5%”.
